What was measured:
Type in all cases: in vivo
various microorganisms = test: Antiinfectious effect in mice; conditions: similar experiments; no data given
Text: (§1) Std-ddY male mice weighing about 23 g (each group: 8 mice) were used. Test compounds dissolved in a physiological saline solution were each intravenously administered to mice once a day 1, 2 and 3 days before the infection. Twenty-four hours after the final administration of test compounds, the mice were infected with various microorganisms suspended in saline (in case of Staphylococcus aureus and Candida albicans) or in Trypto-Soy Broth (manufactured by Eiken Chemical Co., Ltd., Japan) (in case of Pseudomonas aeruginosa and Escherichia coli) under the conditions as shown in Table 1. When the experiment was repeated twice or more, the data were pooled.
Besides, as to the compounds of Examples 8, 18, 36, 37 and 45 (derivatives of GMP3 -A), similar experiments were done.

Pyrogenicity in rabbits = conditions: for Pyrogenicity in rabbits: injected into ear vein, three rabbits per group
Procedure: Rabbits (each group: three rabbits) were used. Test compounds dissolved in a physiological saline solution were each injected into ear vein of rabbits. The difference between maximum body temperature within three hours after the injection of test compound and the body temperature before the injection was regarded as rise in body temperature. The degree of pyrogenicity was evaluated according to the following criterion: […]

[1] = test system: Staphylococcus aureus No. 50774; test: Prophylactic effect on experimental infection, Staphylococcus aureus; conditions: Std-ddY male mice, 14 days after infection
Text: as §1
(§2) ^a Test compounds were intravenously administered once a day 1, 2 and
(§3) 3 days before infection.
(§4) ^b Figures represent (number of survivals)/(number of animals tested)
(§5) and figures in parenthesis represent percent survival.

Candida albicans 3170 = test: Prophylactic effect on experimental infection, Candida albicans; conditions: Std-ddY male mice, 7 days after infection
Text: as §1
3170 fungal sus- infection
as §2, §3, §4, §5

[2] = test system: Pseudomonas aeruginosa No. 12; test: Prophylactic effect on experimental infection, Pseudomonas aeruginosa; conditions: Std-ddY male mice, 7 days after infection
Text: as §1, §2, §3, §4, §5

Escherichia coli P-5101 = test: Prophylactic effect on experimental infection, Escherichia coli; conditions: Std-ddY male mice, 7 days after infection
Text: as §1, §2, §3, §4, §5

[3] = similar experiments, no data given
[4] = Dose 0.05 mg/kg i.v. once a day 1, 2 and 3 days before infection
[5] = Dose 0.125 mg/kg i.v. once a day 1, 2 and 3 days before infection
[6] = Dose 0.2 mg/kg i.v. once a day 1, 2 and 3 days before infection
[7] = Dose 0.8 mg/kg i.v. once a day 1, 2 and 3 days before infection
[8] = Dose 3.1 mg/kg i.v. once a day 1, 2 and 3 days before infection
[9] = Dose 12.5 mg/kg i.v. once a day 1, 2 and 3 days before infection
[10] = Dose 50 mg/kg i.v. once a day 1, 2 and 3 days before infection
[11] = Dose 0.0125 mg/kg i.v. once a day 1, 2 and 3 days before infection

With CCCCCCCCCCCCCCCCCC(=O)NC(CCCC(NC(=O)CCC(NC(=O)C(C)NC(=O)C(C)OC1C(NC(C)=O)C(O)OC(CO)C1OC1OC(CO)C(O)C(O)C1NC(C)=O)C(N)=O)C(=O)[O-])C(N)=O.[Na+] (stereo not shown) [Example 18] the “antiinfectious effect compared with GMP3 -A” value (various microorganisms) was “more potent antiinfectious effect” and the “pyrogenicity compared with GMP3 -A” value (Pyrogenicity in rabbits; [3]) was “less pyrogenicity than GMP3 -A”.
For CCCCCCCCC=CCCCCCCCC(=O)NC(CCCC(NC(=O)CCC(NC(=O)C(C)NC(=O)C(C)OC1C(NC(C)=O)C(O)OC(CO)C1OC1OC(CO)C(O)C(O)C1NC(C)=O)C(N)=O)C(=O)[O-])C(N)=O.[Na+] (stereo not shown) [Example 8], the “antiinfectious effect compared with GMP3 -A” value (various microorganisms) was “more potent antiinfectious effect” and the “pyrogenicity compared with GMP3 -A” value (Pyrogenicity in rabbits; [3]) was “less pyrogenicity than GMP3 -A”.
For CCCCCCCCCCCCCCCCCCNC(=O)C(CCCC(N)C(N)=O)NC(=O)CCC(NC(=O)C(C)NC(=O)C(C)OC1C(NC(C)=O)C(O)OC(CO)C1OC1OC(CO)C(O)C(O)C1NC(C)=O)C(N)=O.Cl [Example 45, β-N-acetylglucosaminyl-(1→4)-N-acetylmuramyl-L-alanyl-D-isoglutaminyl-(L)-meso-2,6-diaminopimelic acid-(D)-amide-(L)-octadecylamide hydrochloride], the “pyrogenicity compared with GMP3 -A” value (Pyrogenicity in rabbits; rabbit, in vivo) was “by far the less than that of GMP3 -A”.
In the case of CCCCCCCCCCNC(=O)C(CCCC(NC(C)=O)C(N)=O)NC(=O)CCC(NC(=O)C(C)NC(=O)C(C)OC1C(NC(C)=O)C(O)OC(CO)C1OC1OC(CO)C(O)C(O)C1NC(C)=O)C(N)=O (stereo not shown) [Example 37], the “pyrogenicity compared with GMP3 -A” value (Pyrogenicity in rabbits; rabbit, in vivo) is reported as “by far the less than that of GMP3 -A”.
With CC(=O)NC1C(OC2C(CO)OC(O)C(NC(C)=O)C2OC(C)C(=O)NC(C)C(=O)NC(CCC(=O)NC(CCCC(N)C(N)=O)C(=O)NC(C)C(=O)O)C(N)=O)OC(CO)C(O)C1O [GMP4 -A, β-N-acetylglucosaminyl-(1→4)-N-acetylmuramyl-L-alanyl-D-isoglutaminyl-(L)-meso-2,6-diaminopimelic acid-(D)-amide-(L)-D-alanine, reference compound] the “(number of survivals)/(number of animals tested)” value [1, 4] was 3/24, the percent survival [1, 4] was 12.5% and the “(number of survivals)/(number of animals tested)” value [1, 5] was 0/8. For the same compound, the percent survival [1, 5] was 0%, the “(number of survivals)/(number of animals tested)” value [1, 6] was 6/16 and the percent survival [1, 6] was 37.5%. For the same compound, the “(number of survivals)/(number of animals tested)” value [1, 7] was 11/32, the percent survival [1, 7] was 34.4% and the “(number of survivals)/(number of animals tested)” value [1, 8] was 11/32. The percent survival [1, 8] was 34.4%, the “(number of survivals)/(number of animals tested)” value [1, 9] was 23/32 and the percent survival [1, 9] was 71.9%. For the same compound, the “(number of survivals)/(number of animals tested)” value (Candida albicans 3170; [8]) was 2/8, the percent survival (Candida albicans 3170; [8]) was 25% and the “(number of survivals)/(number of animals tested)” value (Candida albicans 3170; [9]) was 4/8. For the same compound, the percent survival (Candida albicans 3170; [9]) was 50%, the “(number of survivals)/(number of animals tested)” value (Candida albicans 3170; [10]) was 6/8 and the percent survival (Candida albicans 3170; [10]) was 75%. For the same compound, the “(number of survivals)/(number of animals tested)” value [2, 11] was 12/40, the percent survival [2, 11] was 30% and the “(number of survivals)/(number of animals tested)” value [2, 4] was 16/48. For the same compound, the percent survival [2, 4] was 33.3%, the “(number of survivals)/(number of animals tested)” value [2, 6] was 23/56 and the percent survival [2, 6] was 41.1%. For the same compound, the “(number of survivals)/(number of animals tested)” value [2, 7] was 31/72, the percent survival [2, 7] was 43.1% and the “(number of survivals)/(number of animals tested)” value [2, 8] was 27/64. The percent survival [2, 8] was 42.2%, the “(number of survivals)/(number of animals tested)” value [2, 9] was 32/48 and the percent survival [2, 9] was 66.7%. The “(number of survivals)/(number of animals tested)” value (Escherichia coli P-5101; [6]) was 0/8, the percent survival (Escherichia coli P-5101; [6]) was 0% and the “(number of survivals)/(number of animals tested)” value (Escherichia coli P-5101; [7]) was 0/8. The percent survival (Escherichia coli P-5101; [7]) was 0%, the “(number of survivals)/(number of animals tested)” value (Escherichia coli P-5101; [8]) was 5/24 and the percent survival (Escherichia coli P-5101; [8]) was 20.8%. The “(number of survivals)/(number of animals tested)” value (Escherichia coli P-5101; [9]) was 10/24, the percent survival (Escherichia coli P-5101; [9]) was 41.7% and the “(number of survivals)/(number of animals tested)” value (Escherichia coli P-5101; [10]) was 10/16. The percent survival (Escherichia coli P-5101; [10]) was 62.5%, the Pyrogenicity in rabbits (Pyrogenicity in rabbits; Dose 0.1 mg/rabbit) was “- (one animal showed rise in body temperature of 0.6 °C or more)” and the Pyrogenicity in rabbits (Pyrogenicity in rabbits; Dose 0.3 mg/rabbit) was “+ (two or more animals showed rise in body temperature of 0.6 °C or more)”. The Pyrogenicity in rabbits (Pyrogenicity in rabbits; Dose 1 mg/rabbit) was “+ (two or more animals showed rise in body temperature of 0.6 °C or more)”, the Pyrogenicity in rabbits (Pyrogenicity in rabbits; Dose 3 mg/rabbit) was “+ (two or more animals showed rise in body temperature of 0.6 °C or more)” and the Pyrogenicity in rabbits (Pyrogenicity in rabbits; Dose 10 mg/rabbit) was “+ (two or more animals showed rise in body temperature of 0.6 °C or more)”.
In the case of CC(=O)NC(CCCC(NC(=O)CCC(NC(=O)C(C)NC(=O)C(C)OC1C(NC(C)=O)C(O)OC(CO)C1OC1OC(CO)C(O)C(O)C1NC(C)=O)C(N)=O)C(N)=O)C(N)=O [Example 36, β-N-acetylglucosaminyl-(1→4)-N-acetylmuramyl-L-alanyl-D-isoglutaminyl-(L)-acetyl-(D)-meso-2,6-diaminopimelic acid-(D),(L)-diamide], the “pyrogenicity compared with GMP3 -A” value (Pyrogenicity in rabbits; rabbit, in vivo) is reported as “by far the less than that of GMP3 -A”.

Reference: patent publication US4545932A, “Glucosaminyl muramyl peptide derivatives” (Dainippon Pharmaceutical Co., Ltd., priority 1982, dated 1985)
